Here are results for one compound from ChEMBL document CHEMBL6121016, “Design, Synthesis, and Biological Evaluation of 1,3,4-Thiadiazole Derivatives as Novel Potent Peptide Deformylase Inhibitors for Combating Drug-Resistant Gram-Positive and -Negative Bacteria” (J Med Chem, 2025).

The structures appear in SMILES notation. ≈ marks a conversion by molar mass, not a printed value. Where only a bound is given, the exact number is not on record here.

The test system of data set [1] is Acinetobacter baumannii. Put plainly: Antibacterial activity against Acinetobacter baumannii Bio 120982 after 16 to 18 hrs by broth microdilution method. Format: functional. The note with it: time 16-18 hrs.
The test system of data set [2] is Acinetobacter baumannii. Put plainly: Antibacterial activity against Acinetobacter baumannii Bio 69680 after 16 to 18 hrs by broth microdilution method. Format: functional. The settings on record: time 16-18 hrs.
For data set [3], the system named is Staphylococcus aureus. Put plainly: Anti-biofilm activity against methicillin-resistant Staphylococcus aureus assessed as growth inhibition at 4 microg/ml incubated for 24 hrs by microplate reader analysis relative to control. Type of data set: functional.
The subject of data set [4] is Staphylococcus aureus. As to the kind of experiment: Anti-biofilm activity against mature methicillin-resistant Staphylococcus aureus at 8 microg/ml incubated for 24 hrs by microplate reader analysis. The note with it: dose 8 µg/ml. Format: functional.
The nature of data set [5]: Acute toxicity in normal mouse assessed as aberrant behaviors at 400 mg/kg, iv observed for 14 days. The settings on record: in vivo, 336 h, time 14 day. Type of data set: organism-based.
In data set [6] the test system is Staphylococcus aureus. Put plainly: Anti-biofilm activity against methicillin-resistant Staphylococcus aureus assessed as growth inhibition at 0.031 microg/ml incubated for 24 hrs by microplate reader analysis relative to control. Format: functional.
Data set [7] deals with Acinetobacter baumannii. As to the kind of experiment: Antibacterial activity against Acinetobacter baumannii Bio 53272 after 16 to 18 hrs by broth microdilution method. Type of data set: functional. The settings on record: time 16-18 hrs.
For data set [8], the system named is Staphylococcus aureus. As to the kind of experiment: Bactericidal activity against methicillin-resistant Staphylococcus aureus assessed as bacteriostatic efficiency at 0.25 microg/mL incubated for 24 hrs by time killing analysis relative to control. Type of data set: functional. The settings on record: dose 0.25 µg/ml.
Another data set concerns Escherichia coli. As to the kind of experiment: Antibacterial activity against Escherichia coli ATCC 25922 after 16 to 18 hrs by broth microdilution method. Type of data set: functional. The settings on record: time 16-18 hrs.
Data set [9] can be described thus: Acute toxicity in normal mouse assessed as death at 400 mg/kg, iv observed for 14 days. The settings on record: in vivo, 336 h, time 14 day. Type of data set: organism-based.
Data set [10] deals with Acinetobacter baumannii. As to the kind of experiment: Potency index, ratio of ciprofloxacin MIC to test compound MIC for antibacterial activity against drug-resistant Acinetobacter baumannii after 16 to 18 hrs by broth microdilution method. The note with it: time 16-18 hrs. Format: functional.
In data set [11] the test system is Acinetobacter baumannii. As to the kind of experiment: Antibacterial activity against Acinetobacter baumannii Bio 53250 after 16 to 18 hrs by broth microdilution method. Type of data set: functional. The settings on record: time 16-18 hrs.
The next data set relates to Klebsiella pneumoniae. As to the kind of experiment: Antibacterial activity against Klebsiella pneumoniae CICC 21092 after 16 to 18 hrs by broth microdilution method. Format: functional. The settings on record: time 16-18 hrs.
The test system of data set [12] is Staphylococcus aureus. As to the kind of experiment: Antibacterial activity against methicillin-resistant Staphylococcus aureus ATCC 43300 after 16 to 18 hrs by broth microdilution method. Format: functional. The settings on record: time 16-18 hrs.

Consider `CCCC[C@H](CN(O)C=O)C(=O)N1CCC[C@H]1c1nnc(-c2cccs2)s1`, for which the minimal inhibitory concentration (MIC) worked out at 4 µg/mL (≈ 9.79 µM) against Acinetobacter baumannii [1]; 4 µg/mL (≈ 9.79 µM) against Acinetobacter baumannii [2]; 0.5 µg/mL (≈ 1.22 µM) against Acinetobacter baumannii [7]; 2 µg/mL (≈ 4.9 µM) in the data set with Escherichia coli; 4 µg/mL (≈ 9.79 µM) against Acinetobacter baumannii [11]; 16 µg/mL (≈ 39.2 µM) with Klebsiella pneumoniae. The compound also came in with a minimum inhibitory concentration (MIC) in the data set on Staphylococcus aureus [12] of 0.125 µg/mL (≈ 0.306 µM). In the data set on Staphylococcus aureus [3], the inhibition at 4 µg/mL was found to be 88%. Besides, the Activity with Staphylococcus aureus [4] is listed as 60%; in data set [5], “Non-toxic”; in the data set on Staphylococcus aureus [8], 100%; in data set [9] it was “Non-toxic”. The inhibition at 0.031 µg/mL in the data set on Staphylococcus aureus [6] came out at 40%. Moreover, the Ratio in the data set on Acinetobacter baumannii [10] is recorded as greater than 64.
